Broadly, the AC50 is the midpoint of the concentration-response curve, whichever way the signal moves.

SMILES strings stand for the structures. Calls of active or inactive are those of the source.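 Rule for the calls: active = fitted half-maximal potency for cell killing at or below the highest valid dose tested for that sample; inconclusive = flat curve with 30 to 70% viability loss, or unreliable fit; inactive = the rest.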

Consider 33 compounds from PubChem BioAssay AID743146 (Broad Institute, 2013).

Test system in the first assay: not listed separately
Put plainly: A549 cell cytotoxicity, dose response, cytotoxicity control, CellTiter-Glo luminescence, dry powder, set 3 (AID 743146). As to conditions: A549 viability, CellTiter-Glo ATP luminescence, 72 h; at 26 µM (top of the series). On the technique in general: Cellular ATP, detected with luciferase, serves as a proxy for viable cell number.
On to `CN(C(=O)CCNC(=O)c1ccc(F)cc1F)C1CCCc2ccccc21` (stereo not drawn), for which the activity change, negative = cytotoxicity is 8.93% (inactive).
As for `O=C(CCNC(=O)c1ccc(F)cc1)N[C@@H]1CCCc2ccccc21`, the activity change, negative = cytotoxicity is -10.3% (inactive).
With `CC(NC(=O)CCNC(=O)c1ccc(Cl)cc1)c1ccc(F)cc1` (stereo not drawn), the activity change, negative = cytotoxicity was 1.56% (inactive).
Still for that read-out and setting: under `O=C(CNC(=O)c1ccc(Cl)cc1)N[C@@H]1CCCc2ccccc21` stands -3.21% (inactive); under `O=C(CCCNC(=O)c1ccc(C(F)(F)F)cc1)N[C@@H]1CCCc2ccccc21`, -7.77% (inactive); under `O=C(CNC(=O)c1ccc(Cl)c(Cl)c1)N[C@@H]1CCCc2ccccc21`, -1.02% (inactive).
Consider `CC(C)(C)OC(=O)NCCC(=O)N[C@@H]1CCCc2ccccc21`, for which the activity change, negative = cytotoxicity was 6.05% (inactive).
For `O=C(CCCNC(=O)c1ccc(Cl)c(Cl)c1)N[C@@H]1CCCc2ccccc21`, the activity change, negative = cytotoxicity is -2.59% (inactive).
On to `CC(c1ccccc1)N(C)C(=O)CCNC(=O)c1ccc(Cl)cc1` (stereo not drawn), for which the activity change, negative = cytotoxicity was 14% (inactive).
With `C[C@@H](NC(=O)CCNC(=O)c1ccc(Cl)cc1)c1ccccc1`, the activity change, negative = cytotoxicity was -3.03% (inactive).
Consider `O=C(CCNC(=O)c1ccccc1)N[C@@H]1CCCc2ccccc21`, for which the activity change, negative = cytotoxicity is -10.3% (inactive).
Regarding `O=C(CNC(=O)c1ccc(C(F)(F)F)cc1)N[C@@H]1CCCc2ccccc21`, the activity change, negative = cytotoxicity was 11% (inactive).
As to `O=C(CCCNC(=O)c1ccc(OC(F)(F)F)cc1)N[C@@H]1CCCc2ccccc21`, the activity change, negative = cytotoxicity is 4.74% (inactive).
Regarding `O=C(NC1CCc2ccccc21)C1CCCN(C(=O)c2ccc(Cl)cc2)C1` (stereo not drawn), the activity change, negative = cytotoxicity was -1.86% (inactive).
Same read-out and setting: under `CC(NC(=O)C1CCCN(C(=O)c2ccc(Cl)cc2)C1)c1ccccc1` (stereo not drawn) stands 5.97% (inactive).
On to `O=C(Cc1ccc(Cl)cc1)NCCC(=O)N[C@@H]1CCCc2ccccc21`, for which the activity change, negative = cytotoxicity is -2.28% (inactive).
On to `COc1ccccc1C(C)NC(=O)CCNC(=O)c1ccc(Cl)cc1` (stereo not drawn), for which the activity change, negative = cytotoxicity was 10% (inactive).
As to `CC(NC(=O)CCNC(=O)c1ccc(Cl)cc1)c1ccc2c(c1)OCO2` (stereo not drawn), the activity change, negative = cytotoxicity was 7.31% (inactive).
Regarding `CC(CC(=O)N(C)C1CCCc2ccccc21)NC(=O)c1ccccc1` (stereo not drawn), the activity change, negative = cytotoxicity is -7.34% (inactive).
On to `O=C(CCn1cnc2ccccc2c1=O)NC1CCCc2ccccc21` (stereo not drawn), for which the activity change, negative = cytotoxicity was -2.5% (inactive).
For the compound `CC(C)(C)OC(=O)NCCC(=O)N[C@H]1CCCc2ccccc21`, the activity change, negative = cytotoxicity is -0.649% (inactive).
In the case of `O=C(CCNC(=O)c1ccc(Cl)cc1)N[C@@H]1CCc2ccccc21`, the activity change, negative = cytotoxicity was 0.571% (inactive).
The same measure, in the same setting: the result for `CC(=O)NCCC(=O)N[C@@H]1CCCc2ccccc21` reads 4.17% (inactive); that for `CC(CC(=O)NC1CCCc2ccccc21)NC(=O)c1ccccc1` (stereo not drawn), 0.372% (inactive).
For `COc1ccccc1C(=O)NCCC(=O)NC1CCCc2ccccc21` (stereo not drawn), the activity change, negative = cytotoxicity was 5.71% (inactive).
On to `NCCC(=O)N[C@@H]1CCCc2ccccc21`, for which the activity change, negative = cytotoxicity was 11.5% (inactive).
With `O=C(NC1CCOc2ccccc21)C1CCCN(C(=O)c2ccc(Cl)cc2)C1` (stereo not drawn), the activity change, negative = cytotoxicity was 11.1% (inactive).
The same measure, in the same setting: the result for `O=C(CCCNC(=O)c1ccc(Cl)cc1)N[C@@H]1CCCc2ccccc21` reads -5.3% (inactive).
For the compound `Cc1cccc(C(=O)NCCC(=O)NC2CCCc3ccccc32)c1` (stereo not drawn), the activity change, negative = cytotoxicity was 9.52% (inactive).
In the case of `O=C(CCNC(=O)c1ccc(Cl)cc1)NC1CCCCC1`, the activity change, negative = cytotoxicity was 8.46% (inactive).
As to `O=C(CNC(=O)c1ccc(OC(F)(F)F)cc1)N[C@@H]1CCCc2ccccc21`, the activity change, negative = cytotoxicity was 8.39% (inactive).
Turning to `O=C(CCNC(=O)c1ccccc1Cl)NC1CCCc2ccccc21` (stereo not drawn), the activity change, negative = cytotoxicity was -2% (inactive).

In the next assay the test system is A549 viability, CellTiter-Glo ATP luminescence, 72 h. The description is as above.
Conditions: not given
As for `O=C(CCNC(=O)c1ccc(Cl)cc1)NC1CCCc2ccccc21` (stereo not drawn), the AC50 is 26 µM.
